Laboratory results reported in patent US20250049800A1, “VCP/p97 INHIBITOR FOR THE TREATMENT OF CANCER” (CASI Pharmaceuticals, Inc., priority 2021, published 2025).
Where two headings read alike, the source gives them in different places.

Legend:
MOML-13 cell line = test: Cell Titer-Glo viability, fixed agent + dose response agent combinations; format: cell-based, human; conditions: MOML-13; for IC50: Homo sapiens, read-out: IC50
Method: (§1) The additional therapeutic agents for this example were azacitidine (Cayman Chemical Cat No. 11164), decitabine (Sigma Cat No. A3656) and venetoclax (InvivoChem Cat. No. V0001).
(§2) Cell Culture: Three human acute myeloid leukemia tumor cell lines were used in this study: HL60, MV4;11 and MOLM-13. HL60 and MV4;11 were grown in IMDM base media with 20% and 10% FBS, respectively. MOLM-13 was grown in RPMI 1640 base media with 20% FBS. All culture media contained 2 mM glutamine, 100 units/mL sodium penicillin G, […] gentamicin, and 100 µg/mL streptomycin sulfate. The tumor cells were cultured in tissue culture flasks in a humidified incubator at 37° C., in an atmosphere of 5% CO2 and 95% air. Assay: Tumor cells were seeded in duplicate in a volume of 100 µL/well of media into 96-well micro-culture plates at initial densities low enough to allow for several population doublings (typically three to five) during the indicated incubation period. After a 24 hour incubation, test agents were added to each well. After 72 hours of culture with test articles, cell viability was determined using the Cell Titer-Glo® (Promega G7571) assay. Briefly, Cell Titer-Glo® (Promega G7571) reagents were equilibrated at room temperature for 30 minutes; 100 μL per well was added at endpoint (72 hours). Plates were gently shaken for two minutes and then incubated at room temperature for ten minutes prior to reading luminescence on the BMG Clariostar Plus microplate reader.
(§3) An IC50 ratio for each combination was calculated from the ratio of the combination IC50 as compared to the applicable no fixed agent (vehicle) control.

MV4; 11 cell line = test: as above; format: cell-based, human; conditions: 11; for IC50: Homo sapiens, MV4-11, MV4, read-out: IC50; for Combination:Monotherapy IC50 Ratio: MV4
Method: as §1, §2, §3

HL-60 cell line = test: as above; format: cell-based, human; conditions: for Combination:Monotherapy IC50 Ratio: HL-60; for IC50: Homo sapiens, HL-60, HL-60, read-out: IC50
Method: as §1, §2, §3

K48-Ub (ubiquitin) = K48-Ub (ubiquitin) biomarker in patient blood samples; format: in vivo, human; conditions: cohorts 4 and 5; two of 5 patients showed changes
Method: Two biomarkers were assessed in patients from cohorts 4 and 5. K48-Ub (ubiquitin) and Activated Caspase 3 biomarkers were analyzed from 5 patient blood samples.

[1] = fixed agent Azacitidine - 105 nM
[2] = fixed agent Azacitidine - 850 nM
[3] = fixed agent Decitabine - 2.5 nM
[4] = fixed agent Decitabine - 8.5 nM
[5] = fixed agent Venetoclax + Azacitidine - 6.5 nM
[6] = fixed agent Venetoclax + Azacitidine - 20 nM
[7] = fixed agent Azacitidine - 500 nM
[8] = fixed agent Azacitidine - 3150 nM
[9] = fixed agent Decitabine - 215 nM
[10] = fixed agent Venetoclax + Azacitidine - 50 nM
[11] = fixed agent Azacitidine - 5750 nM
[12] = fixed agent Azacitidine - 9800 nM
[13] = fixed agent Decitabine - 175 nM
[14] = fixed agent Decitabine - 1700 nM
[15] = fixed agent Venetoclax + Azacitidine - 85 nM
[16] = fixed agent Venetoclax + Azacitidine - 475 nM

Compound Cc1cc2c(C(N)=O)cccc2n1-c1nc2c(c(NCc3ccccc3)n1)CCCN2 [Compound 1, 1-(4-(benzylamino)-5,6,7,8-tetrahydropyrido[2,3-d]pyrimidin-2-yl)-2-methyl-1H-indole-4-carboxamide] has an IC50 (MOML-13 cell line; [1]) of 84.6 nM, an IC50 (MOML-13 cell line; [2]) of 84.9 nM and an IC50 (MOML-13 cell line; [3]) of 121 nM. For the same compound, the IC50 (MOML-13 cell line; [4]) was 65 nM, the IC50 (MOML-13 cell line; [5]) was 154 nM and the IC50 (MOML-13 cell line; [6]) was 113 nM. The “Combination:Monotherapy IC50 Ratio” value (MOML-13 cell line; [1]) was 0.39, the “Combination:Monotherapy IC50 Ratio” value (MOML-13 cell line; [2]) was 0.39 and the “Combination:Monotherapy IC50 Ratio” value (MOML-13 cell line; [3]) was 0.56. For the same compound, the “Combination:Monotherapy IC50 Ratio” value (MOML-13 cell line; [4]) was 0.30, the “Combination:Monotherapy IC50 Ratio” value (MOML-13 cell line; [5]) was 0.71 and the “Combination:Monotherapy IC50 Ratio” value (MOML-13 cell line; [6]) was 0.52. It also gave an IC50 (MV4; 11 cell line; [7]) of 114 nM, an IC50 (MV4; 11 cell line; [8]) of 118 nM and an IC50 (MV4; 11 cell line; fixed agent Decitabine - 30 nM) of 117 nM. It also gave an IC50 (MV4; 11 cell line; [9]) of 91.5 nM, an IC50 (MV4; 11 cell line; [6]) of 163 nM and an IC50 (MV4; 11 cell line; [10]) of 118 nM. For the same compound, the “Combination:Monotherapy IC50 Ratio” value (MV4; 11 cell line; [7]) was 0.46, the “Combination:Monotherapy IC50 Ratio” value (MV4; 11 cell line; [8]) was 0.47 and the “Combination:Monotherapy IC50 Ratio” value (MV4; 11 cell line; fixed agent Decitabine - 30 nM) was 0.47. For the same compound, the “Combination:Monotherapy IC50 Ratio” value (MV4; 11 cell line; [9]) was 0.36, the “Combination:Monotherapy IC50 Ratio” value (MV4; 11 cell line; [6]) was 0.65 and the “Combination:Monotherapy IC50 Ratio” value (MV4; 11 cell line; [10]) was 0.47. The “Combination:Monotherapy IC50 Ratio” value (HL-60 cell line; [11]) was 1.02, the “Combination:Monotherapy IC50 Ratio” value (HL-60 cell line; [12]) was 0.85 and the “Combination:Monotherapy IC50 Ratio” value (HL-60 cell line; [13]) was 0.96. The “Combination:Monotherapy IC50 Ratio” value (HL-60 cell line; [14]) was 1.06, the “Combination:Monotherapy IC50 Ratio” value (HL-60 cell line; [15]) was 0.84 and the “Combination:Monotherapy IC50 Ratio” value (HL-60 cell line; [16]) was 0.84. For the same compound, the IC50 (HL-60 cell line; [11]) was 311 nM, the IC50 (HL-60 cell line; [12]) was 258 nM and the IC50 (HL-60 cell line; [13]) was 294 nM. For the same compound, the IC50 (HL-60 cell line; [14]) was 322 nM, the IC50 (HL-60 cell line; [15]) was 256 nM and the IC50 (HL-60 cell line; [16]) was 256 nM. For the same compound, the “K48-Ub (ubiquitin) biomarker, best fold change after treatment” value (K48-Ub (ubiquitin)) was “approximately 3.5 fold”.
